Results from the NIST ThermoML archive (doi:10.1021/acs.jced.5b00367).

Experiment: wn = mass fraction of the nth substance listed
Conditions: 101 kPa, Liquid, Alternating current cell with electrodes, w2 = 0.01

CCCCCCCCCCCCCCCC[N+](C)(C)C.[Br-] [N,N,N-trimethyl-1-hexadecanaminium bromide] + O
Conditions | electrical conductivity [S/m]
299.55 K | 0.0651
299.75 K | 0.0653
299.95 K | 0.0654
300.25 K | 0.0657
300.85 K | 0.066
301.25 K | 0.0662
301.45 K | 0.0663
302.05 K | 0.0667
302.25 K | 0.0668
302.55 K | 0.067
302.65 K | 0.0671
302.85 K | 0.0672
302.95 K | 0.0666
303.05 K | 0.0673
303.15 K | 0.0675
303.35 K | 0.0676
303.65 K | 0.0678
303.85 K | 0.0679
304.05 K | 0.068
304.25 K | 0.0682
304.45 K | 0.0683
304.55 K | 0.0684
304.75 K | 0.0685
304.95 K | 0.0687
305.15 K | 0.0688
305.45 K | 0.0689
305.65 K | 0.0692
306.25 K | 0.0695
306.45 K | 0.0696
306.85 K | 0.0699
307.05 K | 0.07
307.35 K | 0.0702
307.45 K | 0.0703
307.75 K | 0.0705
307.95 K | 0.0707
308.65 K | 0.0712
308.85 K | 0.0714
309.05 K | 0.0715
309.35 K | 0.0712
309.55 K | 0.0718
309.75 K | 0.0719
309.85 K | 0.0721
310.05 K | 0.0722
310.25 K | 0.0723
310.45 K | 0.0724
310.65 K | 0.0727
310.85 K | 0.0728
311.25 K | 0.073
311.55 K | 0.0732
311.75 K | 0.0735
312.05 K | 0.0737
312.55 K | 0.074
312.95 K | 0.0744
313.35 K | 0.0745
313.55 K | 0.0747
313.75 K | 0.0748
313.95 K | 0.075
314.15 K | 0.0752
314.35 K | 0.0753
314.55 K | 0.0755
314.75 K | 0.0756
314.95 K | 0.0759
315.45 K | 0.0761
315.55 K | 0.0762
315.75 K | 0.0764
315.95 K | 0.0765
316.15 K | 0.0767
316.35 K | 0.0769
316.65 K | 0.0771
317.05 K | 0.0775
317.15 K | 0.0776
318.05 K | 0.0778
318.25 K | 0.0783
318.45 K | 0.0786
318.95 K | 0.079
319.25 K | 0.0792
319.75 K | 0.0798
320.25 K | 0.08
320.35 K | 0.0802
320.65 K | 0.0816
321.85 K | 0.0817
322.05 K | 0.0819
322.25 K | 0.082
322.35 K | 0.0823
322.75 K | 0.0824
322.85 K | 0.0826
323.15 K | 0.083
323.35 K | 0.0832
323.45 K | 0.0834
323.65 K | 0.0837
323.85 K | 0.0839
324.05 K | 0.0841
324.35 K | 0.0842
324.45 K | 0.0843
324.65 K | 0.0846
324.75 K | 0.0848
324.85 K | 0.0849
325.15 K | 0.0853
325.35 K | 0.0855
325.55 K | 0.0856
325.65 K | 0.0858
325.85 K | 0.086
326.15 K | 0.0862
326.25 K | 0.0863
326.45 K | 0.0866
326.55 K | 0.0869
326.75 K | 0.087
326.95 K | 0.0871
327.05 K | 0.0873
327.55 K | 0.0876
327.75 K | 0.0876
333.45 K | 0.0912
333.65 K | 0.0914
333.75 K | 0.0915
334.05 K | 0.0916
334.35 K | 0.092
334.75 K | 0.0922
334.95 K | 0.0924
335.35 K | 0.0926
335.55 K | 0.0927
335.75 K | 0.0929
335.95 K | 0.093
336.15 K | 0.0932
336.55 K | 0.0934
336.65 K | 0.0935
336.85 K | 0.0936
337.05 K | 0.0937
337.25 K | 0.0939
337.55 K | 0.0942
337.75 K | 0.0943
338.05 K | 0.0945
338.15 K | 0.0947
338.55 K | 0.095
338.75 K | 0.0951
338.95 K | 0.0952
339.05 K | 0.0953
339.15 K | 0.0954
339.35 K | 0.0955
339.65 K | 0.0957
339.85 K | 0.0959
340.05 K | 0.096
340.35 K | 0.0962
340.55 K | 0.0963
340.65 K | 0.0964
340.85 K | 0.0966
341.05 K | 0.0967
341.15 K | 0.0968
341.35 K | 0.097
341.55 K | 0.0971
341.65 K | 0.0972
341.85 K | 0.0973
341.95 K | 0.0974
342.05 K | 0.0975
342.25 K | 0.0977
342.45 K | 0.0979
342.75 K | 0.098
342.95 K | 0.0982
343.05 K | 0.0983
343.25 K | 0.0987
343.45 K | 0.0989
343.75 K | 0.099
343.95 K | 0.0991
344.05 K | 0.0993
344.35 K | 0.0995
344.55 K | 0.0996
344.75 K | 0.1
345.05 K | 0.1
345.35 K | 0.1
345.55 K | 0.101
345.85 K | 0.101
346.05 K | 0.101
346.25 K | 0.101
346.55 K | 0.101
346.75 K | 0.102
346.85 K | 0.102
347.05 K | 0.102
347.25 K | 0.102
347.55 K | 0.102
347.75 K | 0.102
348.05 K | 0.103
348.15 K | 0.103
